According to US11076593B2, “Reperfusion with omega-3 glycerides promotes donor organ protection for transplantation” (The Trustees of Columbia University in the City of New York, priority 2013, dated 2021):

How the values were obtained:
[1] = system: isolated C57BL/6 mouse hearts; assay: Ex vivo I/R: release of injury markers (LDH, creatine kinase) into the perfusate
Source text: Evidence supporting the methods and products of the invention has been established in an ex vivo model using hearts rapidly removed from ketamine/xylazine anesthetized 12-14 weeks old C57BL/6 mice weighing between 25-30 g that were retrograde perfused in a non-recirculating mode, using an isovolumic perfusion system through the well-known Langendorf System (FIG. 1). In this system isolated mouse hearts were initially perfused with a perfusion buffer containing KREB's solution containing (in mM) the following: 118 NaCl, 4.7 KCl, 2.5 CaCl2, 1.2 MgCl2, 25 NaHCO3, 5 Glucose, 0.4 Palmitate, 0.4 BSA, and 70 mU/1 insulin. […]
After the induced ischemia, control hearts were reperfused using the same Kreb's buffer. […] TG fatty acid (FA) composition (by weight) of the emulsion used in experiments 1-9 was determined by gas liquid chromatography and was as follows for the n-3 emulsion: C14:0, 5.4%; C16:0, 14.8%; C16:1, 8.4%; C18:0, 2.8%; C18:1, 12.7%; C18:2 (n-6), 2.6%; C18:3 (n-3), 0.8%; C20:1, 1.2%; C20:4 (n-6), 1.9%; C20:5 (EPA, n-3), 18.3%; C22:1, 0.2%; C22:4, 0.6%; C22:5, 2.6%; and C22:6 ([…], n-3), 27.7. […]
Myocardial injury was assessed by measuring the release of lactate dehydrogenase (LDH) from the effluent in the ex vivo I/R system and from blood samples in the in vivo LAD system, using the commercially available enzymatic kits (Pointe Scientific, INC, MI USA) as published earlier.^1,2 […]

[2] = system: p10 C57BL/6J neonatal mice, cerebral H/I; assay: Unilateral cerebral hypoxia-ischemia (H/I) in neonatal mice, TTC infarct volume at 24 hr; format: in vivo, mouse; settings: pre-H/I protocol, two i.p. doses; 24 hr reperfusion
Source text: Three-day-old C57BL/6J neonatal mice of both genders were purchased from Jackson Laboratories (Bar Harbor, Me.) with their birth mother. The Rice-Vannucci model of H/I was used and modified to p10 neonatal mice.^5 Briefly, on postnatal day 10 H/I was induced by the ligation of the right common carotid artery, which was further cauterized and cut under isoflurane anesthesia. The investigator was blinded to the lipid emulsion treatment during the surgery and after the surgery. The entire surgical procedure was completed within 5 min for each mouse. Pups were then allowed to recover with their dams for 1.5 hr. Surrounding temperature during experiments was kept at 28° C. Mice were then exposed to systemic hypoxia for 15 min in a hypoxic chamber in a neonatal isolette (humidified 8% oxygen/nitrogen, Tech Air Inc., White Plains, N.Y.).^5 The ambient temperature inside the chamber during hypoxia was stabilized at 37±0.3° C. […]
After 24 hr of reperfusion, the animals were sacrificed by decapitation and brains were immediately harvested. […] Using Adobe Photoshop and NIH Image J imaging applications, planar areas of infarction on serial sections were summed to obtain the volume (mm^3) of infarcted tissue, which was divided by the total (infarcted+non-infarcted) volume of the hemisphere ipsilateral to carotid artery ligation, and expressed as a percentage of total volume. […]

SMILES	LDH release compared to I/R control hearts ([1]; SB-216763 (3 μM) plus 0.3% n-3 TG emulsion)	LDH release (fold change) compared to I/R control ([1]; inhibitor alone, from baseline through ischemia and reperfusion, 10 μM LY-294002, 3 μM SB216763)	infarct volume compared to saline control [2]
Cn1cc(C2=C(c3ccc(Cl)cc3Cl)C(=O)NC2=O)c2ccccc21 [SB216763]	significantly inhibited LDH release	significantly inhibited LDH release	–
Cc1c(C)c2c(c(C)c1O)CC[C@@](C)(CCC[C@H](C)CCC[C@H](C)CCCC(C)C)O2 [alpha-tocopherol]	–	–	no significant difference
